Measurements taken from patent US20240166658A1, “PORPHYRIN DERIVATIVES AND USES THEREOF” (University of Tasmania, priority 2021, published 2024).

Key:
[1] = UV-Vis host-guest titration, association constant; assay type: binding; settings: host (9) in dichloromethane; triplicate, TBA salt and acid; Bindfit
Description: (§1) Path length of the quartz cell was 1 cm. For UV-vis titrations, a stock solution of host was prepared (2.2×10^−3 M) in dichloromethane (DCM) and serially diluted to the required concentrations. Working solutions of tetrabutylammonium (TBA) anion salts or guest molecules were prepared in the same manner Host−guest titrations used solutions of guest prepared in the working concentration of host solution, according to the procedure of Thordarson, 2011.
(§2) UV-vis spectroscopic host−guest titrations were performed in accordance with the methodologies of Thordarson, 2011. Solutions of host in dichloromethane were prepared. Solutions of guest were then prepared in the host solution. Aliquots of guest in host solution were added to host solution and sequentially analysed until a known molar equivalent of guest was added. The amount of guest added per aliquot was ascertained by a preliminary screening experiment; strong association constants required smaller molar equivalents so more information could be collected. By way of example, host (9) responded to 0.1 molar equivalent of PFBA strongly, so an addition of 1 molar equivalent of PFBA would result in a loss of information. The inverse is true for weaker binding interactions. […]
(§3) A host solution of host (9) in dichloromethane was monitored using UV-Vis analysis as 0.5-10 equivalents of each PFAS was added. […]

[2] = Filter paper tests; settings: aqueous PFOA in the <5 ppm range, dipped or dropped
Description: Sensor molecule (9) was dissolved in dichloromethane and filter papers were soaked in the solution. The papers were removed and dried by evaporation. The paper was then dipped into aqueous solutions of PFOA or aqueous solutions were dropped onto the paper. […] The aqueous solutions of PFOA tested were in the <5 ppm range.

[3] = Anion selectivity screening with TBA salts, UV-Vis; assay type: binding; settings: dichloromethane
Description: The selectivity of the host (9) for anions was investigated visually and spectroscopically. The TBA salts of anions commonly found in significant concentrations in water samples were added in 10 molar equivalents to solutions of host to give preliminary indications of host−guest interactions prior to more extensive investigation. Although not an accurate proxy of real-world matrix concentrations, it was thought that the binding of any anions would indicate any affinity for other anions.

[4] = GenX, water and HDPP tube experiment (biphasic)
Description: A solution of medium chain amide host (2.04×10^−5 M) in dichloromethane was added to an aqueous solution of GenX™ (5 ppm, 1.51×10^−5 M 50 mL) in a volumetric flask. […] Both phases were then transferred via pouring to a HDPP tube. The green colour persisted initially but began to reduce with time.

[5] = UV-Vis host-guest titration, association constant; assay type: binding; settings: host (9) in dichloromethane; triplicate, TBA salt and acid; Bindfit; remark: listed apart in the source
Description: as §1, §2, §3

[6] = RGB response curve, high PFCA concentration; settings: host 5.01×10^−6 M, dichloromethane
Text: The present inventors investigated the colorimetric responses for host (12) with “high” concentrations of PFCA (where [host]<[guest]), and “low” concentrations of PFCA (where [host]>[guest]). Generally, RGB response values will increase with increasing concentrations of PFCA until the host has been saturated; beyond the saturation limit, RGB response values are similar. When there was an excess of guest, the response values could only be used as a threshold indication for PFCA concentrations.
RGB response curves were established by combining solutions of host (12) (5.01×10^−6 M) with solutions of PFOA (0-16 ppm, 3.86×10^−5 M) in dichloromethane. […] Thus, when establishing a calibration curve, the relative proportion of free host to host−PFCA complex limiting the variability of colour response must be considered for the application.
For the “high” PFCA concentration experiment, the PFOA generated calibration curve (y=0.0401 ln(x)+0.2366, R^2=0.9677) (FIG. 17) begins to level out at ca. 2 ppm. Above that concentration, the RGB response values are difficult to differentiate.

[7] = Colorimetric matching of a PFCA sample, organic; settings: CIE76
Description: To probe the sensitivity of this technique visually, a colour chart based on the response of host (12) to known concentrations of PFOA was tested against another PFCA. The PFCA was chosen to be PFHxA, as PFOA was used for the calibration process. Samples of PFHxA (4 ppm) were prepared and combined with host (12). The average colour from triplicate experiments was compared to a calibration chart. The RGB values for host (12) were collected at six concentrations of PFOA. To make a direct comparison to the 4 ppm PFHxA sample, a colour chart was generated by fitting four colour points between the measured values for 0 and 5 ppm of PFOA. The generated RGB value for the 4 ppm PFOA was then compared to the measured RGB value for the 4 ppm PFHxA sample. […] The 3 and 5 ppm PFOA colours had ΔE values of 10.3 and 9.5 respectively, making the 4 ppm colour the most suitable match.

| SMILES | K value (averaged association constant Ka) [1] | colour change of host-soaked filter paper [2] | shift in the Q band ([3]; 10 molar equivalents of TBA salt) [nm] | UV-Vis change after addition of anion ([3]; 10 molar equivalents of TBA salts) | colour of host solution after transfer to HDPP tube ([4]; after 24 hours) | colour of host solution ([4]; host 2.04×10^−5 M in dichloromethane added to aqueous GenX 5 ppm) | K value (averaged association constant Ka) [5] | PFOA concentration at which calibration curve begins to level out [6] | ΔE, PFOA chart colour vs 4 ppm PFHxA sample ([7]; 3 ppm PFOA colour) | ΔE, PFOA chart colour vs 4 ppm PFHxA sample ([7]; 4 ppm PFOA colour) | ΔE, PFOA chart colour vs 4 ppm PFHxA sample ([7]; 5 ppm PFOA colour) |
| --- | --- | --- | --- | --- | --- | --- | --- | --- | --- | --- | --- |
| O=C(Nc1ccccc1-c1c2nc(c(-c3ccccc3NC(=O)C(F)(F)C(F)(F)C(F)(F)C(F)(F)C(F)(F)C(F)(F)C(F)(F)F)c3ccc([nH]3)c(-c3ccccc3NC(=O)C(F)(F)C(F)(F)C(F)(F)C(F)(F)C(F)(F)C(F)(F)C(F)(F)F)c3nc(c(-c4ccccc4NC(=O)C(F)(F)C(F)(F)C(F)(F)C(F)(F)C(F)(F)C(F)(F)C(F)(F)F)c4ccc1[nH]4)C=C3)C=C2)C(F)(F)C(F)(F)C(F)(F)C(F)(F)C(F)(F)C(F)(F)C(F)(F)F [host (9), α,α,α,α-5,10,15,20-tetrakis(2-(pentadecafluorooctanoylamino)phenyl)porphyrin] | 23968 | A colour change was discernible | ~32 | no significant change | significant reduction in the intensity of the green colour | immediately became a vibrant green colour | 12999 | – | – | – | – |
| O=C(Nc1ccccc1-c1c2nc(c(-c3ccccc3NC(=O)C(F)(F)C(F)(F)C(F)(F)C(F)(F)C(F)(F)C(F)(F)C(F)(F)C(F)(F)C(F)(F)C(F)(F)C(F)(F)F)c3ccc([nH]3)c(-c3ccccc3NC(=O)C(F)(F)C(F)(F)C(F)(F)C(F)(F)C(F)(F)C(F)(F)C(F)(F)C(F)(F)C(F)(F)C(F)(F)C(F)(F)F)c3nc(c(-c4ccccc4NC(=O)C(F)(F)C(F)(F)C(F)(F)C(F)(F)C(F)(F)C(F)(F)C(F)(F)C(F)(F)C(F)(F)C(F)(F)C(F)(F)F)c4ccc1[nH]4)C=C3)C=C2)C(F)(F)C(F)(F)C(F)(F)C(F)(F)C(F)(F)C(F)(F)C(F)(F)C(F)(F)C(F)(F)C(F)(F)C(F)(F)F [host (12), α,α,α,α-5,10,15,20-tetrakis(2-(tricosafluorododecanoylamino)phenyl) porphyrin] | – | – | – | – | – | – | – | ca. 2 ppm | 10.3 | 7.3 | 9.5 |
